Test results as given in patent US20100173885A1, “ORGANOMETEALLIC COMPOUNDS” (priority 2007, published 2010).

Tests used:
[1] = Fluorescence quantum yield of photosensitizers; assay type: physicochemical; details: in MeOH at 648 nm after 410 nm excitation
Method: The UV-visible absorption spectra were recorded on an Uvikon 930 spectrophotometer and fluorescence spectra on a Perkin-Elmer LS50 spectrofluorometer.

RAW macrophages = experiment: Phototoxicity in RAW macrophages, irradiation at 652 nm, MTT test; assay type: cell-based; details: RAW cells, 10 μM, 20 mW/cm^2, MTT 24 h after irradiation
Method: RAW cells were grown in 96-well cell culture plates (Corning, N.Y.) until 75% confluent in DMEM medium containing 10% FCS. The culture media were replaced with fresh medium containing the Ru, Os or Rh-porphyrin analogs at 10 μM (minimal dark cytotoxicity) and the cells were exposed overnight to the compounds. Then, the media were replaced with DMEM without phenol red containing 10% FCS and cells were irradiated at 652 nm using a diode laser (Applied Optronics, South Plainfield, N.J.) coupled to a frontal diffuser (Medlight SA, Ecublens, Switzerland), at an irradiance of 20 mW/cm^2. Experiments were performed in triplicate wells. Cell viability was evaluated 24 h later using the MTT test. Briefly, 3-(4,5-dimethyl-2-thiazoyl)-2,5-diphenyltetrazolium bromide (MTT, Merck) was added at 250 μg/mL and incubation was continued for 2 h, then the cell culture supernatants were removed. The cell layers were dissolved in iPrOH/0.04N HCl and the absorbance measured at 540 nm in a multiwell-plate reader (iEMS Reader MF, Labsystems, Bioconcept, Switzerland) and compared to the values of control cells incubated with the nanoparticles but without laser irradiation.

Compound | fluorescence quantum yield φf [1] [%] | photosensitivity (photosensitizer ranking) (RAW macrophages)
C1=Cc2nc1c(-c1ccncc1)c1ccc([nH]1)c(-c1ccncc1)c1nc(c(-c3ccncc3)c3ccc([nH]3)c2-c2ccncc2)C=C1 [TPP, 5,10,15,20-tetra(4-pyridyl)porphyrin, reference compound] | 10.4 | –
[Rh4(η^5-Cp*)4(TPP)Cl8] [Compound 7] | 7.9 | –
[Ru4(η^6-1,4-C6H4(COOEt)2)4(TPP)Cl8] [Compound 5] | 7.2 | –
[Ir4(η^5-Cp*)4(TPP)Cl8] [Compound 8] | 4.5 | –
[Ru4(η^6-C6H5CH3)4(TPP)Cl8] [Compound 2] | 7.4 | best photosensitizers amongst the Ru-porphyrin compounds
[Ru4(η^6-C6Me6)4(TPP)Cl8] [Compound 4] | 7.3 | –
[Ru4(η^6-p-Pr^iC6H4Me)4(TPP)Cl8] [Compound 3] | 7.9 | –
[OS4(η^6-p-Pr^iC6H4Me)4(TPP)Cl8] [Compound 6] | 7.0 | –
[Ru4(η^6-C6H6)4(TPP)Cl8] [Compound 1] | 6.1 | best photosensitizers amongst the Ru-porphyrin compounds
